ChEMBL document CHEMBL1201862, “PubChem BioAssay data set” (2004)
Calls of active or inactive are those of the source.

Legend:
[1] = biological target: Troponin, cardiac muscle (Homo sapiens, UniProt P19429+P45379+P63316); experiment: Fluorescence-based biochemical high throughput dose response assay for activators of the calcium sensitivity of cardiac Regulated Thin Filaments (RTF). [Related pubchem assays (depositor defined):AID493008, AID493018, AID504382, AID504383]; assay type: protein-complex assay
[2] = biological target: T1, RNA-binding protein pos-1 (Caenorhabditis elegans, UniProt G5EF15); experiment: inhibitors of POS-1/mex-3 RNA binding, dose response, biochemical, fluorescence polarization (AID 1964);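 further: purified POS-1 fused to maltose binding protein made in E. coli; potency of compounds blocking POS-1 binding to fluorescent RNA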
T1 sequence (G5EF15 whole entry): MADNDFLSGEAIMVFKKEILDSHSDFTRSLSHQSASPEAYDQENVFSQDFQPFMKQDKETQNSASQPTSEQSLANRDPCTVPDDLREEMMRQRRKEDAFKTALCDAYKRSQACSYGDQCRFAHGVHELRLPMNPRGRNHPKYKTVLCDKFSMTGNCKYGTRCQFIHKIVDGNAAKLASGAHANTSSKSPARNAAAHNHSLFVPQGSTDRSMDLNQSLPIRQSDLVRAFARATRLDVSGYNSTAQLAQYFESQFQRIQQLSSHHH

[3] = biological target: Protein Rev (Human immunodeficiency virus type 1 group M subtype B (isolate HXB2)(HIV-1), UniProt P04618); experiment: inhibitors of Rev binding to RRE RNA, dose response, biochemical, fluorescence polarization, HIV-1 (AID 434976); set-up: species or system Human immunodeficiency virus 1
[4] = biological target: T2, Zinc finger protein mex-5 (Caenorhabditis elegans, UniProt Q9XUB2); experiment: MEX-5/TCR-2 RNA interaction inhibitors, dose response, biochemical, C. elegans, fluorescence polarization (AID 1960)
T2 sequence (Q9XUB2 whole entry): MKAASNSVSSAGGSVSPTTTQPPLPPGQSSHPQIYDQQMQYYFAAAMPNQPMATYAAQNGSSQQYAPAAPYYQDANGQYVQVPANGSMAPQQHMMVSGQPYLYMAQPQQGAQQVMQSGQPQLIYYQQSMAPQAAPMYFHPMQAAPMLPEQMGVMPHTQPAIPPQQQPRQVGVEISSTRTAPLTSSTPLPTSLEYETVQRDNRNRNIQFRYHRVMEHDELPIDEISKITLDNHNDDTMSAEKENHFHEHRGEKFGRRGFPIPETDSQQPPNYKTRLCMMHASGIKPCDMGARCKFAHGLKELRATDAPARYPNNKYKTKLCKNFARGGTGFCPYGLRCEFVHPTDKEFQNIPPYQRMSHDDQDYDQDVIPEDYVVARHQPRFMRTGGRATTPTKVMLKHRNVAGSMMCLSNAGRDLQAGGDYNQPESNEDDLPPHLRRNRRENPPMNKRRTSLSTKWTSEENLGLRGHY

[5] = biological target: T3, Polyadenylate-binding protein 1 (Homo sapiens, UniProt P11940); experiment: PABP1 MLLE–PAM2 binding inhibitor potency, dose response, biochemical, fluorescence polarization, FITC-PAM2 peptide (AID 602259); assay type: functional; settings: read-out: IC50_Mean
[6] = biological target: T4, Protein skinhead-1 (Caenorhabditis elegans, UniProt P34707); assay type: functional
T4 sequence (P34707 whole entry): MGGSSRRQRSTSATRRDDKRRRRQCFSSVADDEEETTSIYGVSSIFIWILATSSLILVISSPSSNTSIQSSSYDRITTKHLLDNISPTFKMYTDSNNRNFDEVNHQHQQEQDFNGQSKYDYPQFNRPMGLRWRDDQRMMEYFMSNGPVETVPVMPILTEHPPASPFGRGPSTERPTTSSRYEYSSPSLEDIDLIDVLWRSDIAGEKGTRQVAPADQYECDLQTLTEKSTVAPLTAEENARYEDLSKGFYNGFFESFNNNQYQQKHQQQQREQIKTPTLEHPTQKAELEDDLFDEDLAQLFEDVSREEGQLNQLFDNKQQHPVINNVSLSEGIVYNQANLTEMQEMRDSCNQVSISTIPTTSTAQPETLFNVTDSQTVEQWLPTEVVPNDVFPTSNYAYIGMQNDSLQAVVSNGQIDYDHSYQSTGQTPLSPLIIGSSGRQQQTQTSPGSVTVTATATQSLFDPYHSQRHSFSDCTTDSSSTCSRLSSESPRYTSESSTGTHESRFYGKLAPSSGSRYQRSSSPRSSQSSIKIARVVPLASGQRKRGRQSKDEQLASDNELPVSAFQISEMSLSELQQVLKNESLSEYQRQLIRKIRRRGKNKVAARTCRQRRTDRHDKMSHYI

[7] = biological target: Female germline-specific tumor suppressor gld-1 (Caenorhabditis elegans, UniProt Q17339); experiment: inhibitors of GLD-1 binding to TGE RNA, dose response, biochemical, fluorescence polarization, C. elegans (AID 2802);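 further: fluorescence polarization of labeled TGE RNA bound by purified gld-1 protein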
[8] = biological target: T3, Polyadenylate-binding protein 1; experiment: PABP1 MLLE–PAM2 interaction inhibitors, dose response, miRNA deadenylation inhibitor project, biochemical, fluorescence polarization, Cy5-PAM2 peptide, secondary (AID 602260); assay type: functional; settings: read-out: IC50_Mean
[9] = biological target: 14-3-3 protein gamma (Homo sapiens, UniProt P61981); experiment: modulators of 14-3-3 gamma client binding – dose response (AID 711); assay type: functional
[10] = biological target: Beta-galactosidase (Escherichia coli, UniProt Q8VNN2); experiment: beta-galactosidase enzyme inhibitors and activators, dose response, artefact control for CCR6 antagonist project, biochemical, E. coli enzyme, set 3 (AID 504712); assay type: functional
[11] = biological target: C-C chemokine receptor type 6 (Homo sapiens, UniProt P51684); experiment: CCR6 receptor antagonists, dose response, cell-based, luminescent beta-arrestin readout (AID 504728); assay type: functional
[12] = biological target: T5, E3 ubiquitin-protein ligase XIAP (Homo sapiens, UniProt P98170); experiment: XIAP antagonists, biochemical, IAP family, fluorescence polarization (AID 1018); assay type: functional
[13] = biological target: T5, E3 ubiquitin-protein ligase XIAP; experiment: Counter Screen using XIAP-Bir3 for Chemical Antagonists of Bir1/2 domains of IAP-family anti-apoptotic proteins. [Related pubchem assays (depositor defined):AID1018, AID1449, AID1514, AID1638, AID1749, AID1750, AID488957, AID488963]
[14] = biological target: T6, SUMO-activating enzyme (Homo sapiens, UniProt Q9UBT2); experiment: inhibitors of in vitro SUMOylation cascade, primary screen, biochemical, HTRF, uHTS (AID 2006); assay type: protein-complex assay
[15] = biological target: T7, Mannose-6-phosphate isomerase (Homo sapiens, UniProt P34949); experiment: human PMI inhibitors, high substrate, primary screen, biochemical, fluorescence intensity, high mannose 6-phosphate (AID 1220)
T7 sequence (P34949 whole entry): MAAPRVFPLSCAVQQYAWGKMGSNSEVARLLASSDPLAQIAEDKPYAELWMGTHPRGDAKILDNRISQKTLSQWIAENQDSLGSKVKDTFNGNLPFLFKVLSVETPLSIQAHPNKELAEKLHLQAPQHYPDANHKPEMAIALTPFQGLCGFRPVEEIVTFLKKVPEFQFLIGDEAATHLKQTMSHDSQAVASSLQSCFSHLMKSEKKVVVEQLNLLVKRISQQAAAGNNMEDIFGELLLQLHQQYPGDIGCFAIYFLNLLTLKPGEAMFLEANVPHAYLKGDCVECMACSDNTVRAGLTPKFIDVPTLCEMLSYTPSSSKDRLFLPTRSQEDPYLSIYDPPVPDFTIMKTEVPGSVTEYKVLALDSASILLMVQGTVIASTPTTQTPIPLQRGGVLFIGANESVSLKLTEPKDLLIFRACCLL

[16] = biological target: T6, SUMO-activating enzyme; experiment: SUMOylation inhibitor hit validation, confirmation, SUMOylation inhibitor project, biochemical, AlphaScreen (AID 2018); assay type: functional
[17] = biological target: Alkaline phosphatase, placental type (Homo sapiens, UniProt P05187); experiment: PLAP enzyme inhibitors, confirmation, biochemical, luminescence (AID 1512); assay type: functional
[18] = biological target: DNA dC->dU-editing enzyme APOBEC-3G (Homo sapiens, UniProt Q9HC16); experiment: Dose Response confirmation of small molecule APOBEC3G DNA Deaminase Inhibitors via a fluorescence-based single-stranded DNA deaminase assay. [Related pubchem assays (depositor defined):AID493012, AID493028]; assay type: functional
[19] = biological target: T8, Intestinal-type alkaline phosphatase (Homo sapiens, UniProt P09923); experiment: human IAP activators, dose response, biochemical, luminescent, uHTS hits, set 2 (AID 488817); assay type: functional;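 further: potency of activators that raise enzyme activity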
[20] = biological target: T9, Intestinal-type alkaline phosphatase (Mus musculus, UniProt P24822); experiment: PubChem AID 488875; assay type: functional
[21] = biological target: T8, Intestinal-type alkaline phosphatase; experiment: human intestinal alkaline phosphatase activators, dose response, biochemical, luminescence, uHTS hits (AID 463120); assay type: functional
[22] = biological target: T10, Alkaline phosphatase, tissue-nonspecific isozyme (Homo sapiens, UniProt P05186); experiment: TNAP enzyme activators, dose response, selectivity assay for human IAP activator project, biochemical, TNAP isozyme, human IAP uHTS hits (AID 488886); assay type: functional;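 further: potency of compounds raising TNAP activity as a selectivity check on IAP activators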
T10 sequence (P05186 whole entry): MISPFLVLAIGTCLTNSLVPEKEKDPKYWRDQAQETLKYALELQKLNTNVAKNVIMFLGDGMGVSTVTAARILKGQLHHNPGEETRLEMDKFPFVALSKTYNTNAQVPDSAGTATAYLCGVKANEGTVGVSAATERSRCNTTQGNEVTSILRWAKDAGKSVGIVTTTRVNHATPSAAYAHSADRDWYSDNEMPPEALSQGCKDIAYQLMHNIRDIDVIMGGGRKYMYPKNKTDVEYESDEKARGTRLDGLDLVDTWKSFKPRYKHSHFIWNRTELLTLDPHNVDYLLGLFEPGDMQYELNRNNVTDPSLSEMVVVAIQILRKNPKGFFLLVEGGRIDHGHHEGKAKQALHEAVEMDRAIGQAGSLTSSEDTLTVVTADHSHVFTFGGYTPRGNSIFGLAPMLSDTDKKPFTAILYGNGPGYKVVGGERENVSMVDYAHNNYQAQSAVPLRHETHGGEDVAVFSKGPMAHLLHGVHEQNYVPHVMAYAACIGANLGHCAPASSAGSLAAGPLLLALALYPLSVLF

[23] = biological target: T8, Intestinal-type alkaline phosphatase; experiment: human IAP inhibitors, dose response, biochemical, luminescent, uHTS hits, set 2 (AID 488793); assay type: functional
[24] = biological target: T8, Intestinal-type alkaline phosphatase; experiment: Dose Response confirmation of uHTS hits from a small molecule inhibitors of human intestinal alkaline phosphatase via a luminescent assay. [Related pubchem assays (depositor defined):AID2544, AID2574]; assay type: functional
[25] = C. albicans growth with fluconazole, confirmation, fluorescence, retest (AID 2467); assay type: functional, cell-based
[26] = NIH-3T3 fibroblast cytotoxicity, dose response, cytotoxicity control, cell-based, fluorescence, Alamar Blue, secondary assay (AID 2327); assay type: functional;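 further: NIH-3T3 mouse fibroblasts cultured with fluconazole at 8 µg/mL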
[27] = biological target: T8, Intestinal-type alkaline phosphatase; experiment: inhibition of human intestinal alkaline phosphatase – biochemical, dose response (AID 488876); assay type: functional
[28] = biological target: Induced myeloid leukemia cell differentiation protein Mcl-1 (Homo sapiens, UniProt Q07820); assay type: functional
[29] = biological target: T10, Alkaline phosphatase, tissue-nonspecific isozyme; experiment: TNAP enzyme inhibition by screening hits, dose response, selectivity assay for mouse IAP inhibitor project, biochemical, human TNAP, uHTS hits (AID 488906); assay type: functional
[30] = biological target: T9, Intestinal-type alkaline phosphatase; experiment: PubChem AID 488785; assay type: functional

T8 sequence (P09923 whole entry): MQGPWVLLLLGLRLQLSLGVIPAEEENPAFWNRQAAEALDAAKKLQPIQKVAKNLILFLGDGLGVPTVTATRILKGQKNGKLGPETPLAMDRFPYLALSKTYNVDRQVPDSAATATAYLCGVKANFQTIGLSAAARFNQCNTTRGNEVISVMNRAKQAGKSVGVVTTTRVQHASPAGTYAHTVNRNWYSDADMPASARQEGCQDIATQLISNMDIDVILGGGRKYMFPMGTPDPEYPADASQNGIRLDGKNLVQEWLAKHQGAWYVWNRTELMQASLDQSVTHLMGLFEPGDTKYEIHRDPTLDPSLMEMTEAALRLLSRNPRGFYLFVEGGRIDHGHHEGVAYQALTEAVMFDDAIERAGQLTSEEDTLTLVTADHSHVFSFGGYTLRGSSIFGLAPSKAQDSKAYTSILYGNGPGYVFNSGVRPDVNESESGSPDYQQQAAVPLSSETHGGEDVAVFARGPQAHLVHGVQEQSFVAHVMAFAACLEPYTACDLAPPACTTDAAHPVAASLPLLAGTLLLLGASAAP
T9 sequence (P24822 whole entry): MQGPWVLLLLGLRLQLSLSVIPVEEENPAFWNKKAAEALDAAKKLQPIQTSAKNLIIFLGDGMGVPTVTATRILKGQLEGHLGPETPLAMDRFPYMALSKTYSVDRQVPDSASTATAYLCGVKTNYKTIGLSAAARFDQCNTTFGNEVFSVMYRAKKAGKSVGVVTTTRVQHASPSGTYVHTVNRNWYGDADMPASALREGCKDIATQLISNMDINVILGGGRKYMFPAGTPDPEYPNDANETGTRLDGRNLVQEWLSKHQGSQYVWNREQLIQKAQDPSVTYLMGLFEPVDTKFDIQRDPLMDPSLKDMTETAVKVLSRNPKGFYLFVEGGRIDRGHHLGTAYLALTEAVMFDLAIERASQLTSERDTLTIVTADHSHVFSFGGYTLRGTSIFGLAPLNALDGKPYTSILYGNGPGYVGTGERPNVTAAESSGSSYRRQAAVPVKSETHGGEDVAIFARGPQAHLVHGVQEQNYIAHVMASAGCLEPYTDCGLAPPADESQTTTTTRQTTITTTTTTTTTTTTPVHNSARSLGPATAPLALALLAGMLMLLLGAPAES
T5 sequence (P98170 whole entry): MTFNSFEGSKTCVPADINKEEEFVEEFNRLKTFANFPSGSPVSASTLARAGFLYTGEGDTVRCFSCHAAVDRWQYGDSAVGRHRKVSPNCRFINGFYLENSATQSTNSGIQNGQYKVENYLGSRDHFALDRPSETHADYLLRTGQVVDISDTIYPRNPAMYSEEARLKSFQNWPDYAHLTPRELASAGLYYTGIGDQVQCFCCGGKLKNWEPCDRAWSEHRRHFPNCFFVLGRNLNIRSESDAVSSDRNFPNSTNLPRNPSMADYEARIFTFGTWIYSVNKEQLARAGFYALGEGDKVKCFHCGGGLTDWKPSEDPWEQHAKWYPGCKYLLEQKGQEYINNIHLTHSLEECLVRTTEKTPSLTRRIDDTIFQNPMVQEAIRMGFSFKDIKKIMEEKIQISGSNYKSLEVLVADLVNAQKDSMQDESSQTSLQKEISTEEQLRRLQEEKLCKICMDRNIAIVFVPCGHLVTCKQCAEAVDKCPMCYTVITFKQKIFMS
T6 sequence (Q9UBE0 whole entry): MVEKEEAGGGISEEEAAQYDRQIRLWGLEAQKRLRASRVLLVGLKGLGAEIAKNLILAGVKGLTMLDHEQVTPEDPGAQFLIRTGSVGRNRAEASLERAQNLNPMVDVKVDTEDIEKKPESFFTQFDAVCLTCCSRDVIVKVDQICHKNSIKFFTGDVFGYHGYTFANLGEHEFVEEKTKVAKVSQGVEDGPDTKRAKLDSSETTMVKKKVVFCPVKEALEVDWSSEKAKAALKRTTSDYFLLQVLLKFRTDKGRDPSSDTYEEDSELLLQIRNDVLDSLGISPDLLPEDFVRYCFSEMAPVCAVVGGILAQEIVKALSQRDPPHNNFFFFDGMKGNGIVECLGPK
T6 sequence (Q9UBT2 whole entry): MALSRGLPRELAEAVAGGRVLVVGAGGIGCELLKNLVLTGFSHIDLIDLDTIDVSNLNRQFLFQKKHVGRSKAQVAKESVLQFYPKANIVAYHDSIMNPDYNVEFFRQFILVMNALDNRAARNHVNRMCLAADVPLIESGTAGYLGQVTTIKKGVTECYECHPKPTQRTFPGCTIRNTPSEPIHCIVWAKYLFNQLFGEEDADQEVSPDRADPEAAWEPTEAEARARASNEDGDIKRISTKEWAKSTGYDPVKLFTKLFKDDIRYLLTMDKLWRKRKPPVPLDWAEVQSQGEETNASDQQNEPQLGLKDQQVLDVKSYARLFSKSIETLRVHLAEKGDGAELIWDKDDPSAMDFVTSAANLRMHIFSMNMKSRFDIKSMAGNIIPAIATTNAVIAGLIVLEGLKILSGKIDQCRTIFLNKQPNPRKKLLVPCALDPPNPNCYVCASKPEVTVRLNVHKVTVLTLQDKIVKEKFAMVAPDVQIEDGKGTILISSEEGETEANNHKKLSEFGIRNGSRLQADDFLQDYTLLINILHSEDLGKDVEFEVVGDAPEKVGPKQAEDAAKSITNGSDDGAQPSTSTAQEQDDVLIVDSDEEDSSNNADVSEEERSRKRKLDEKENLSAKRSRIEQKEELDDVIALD
T3 sequence (P11940 whole entry): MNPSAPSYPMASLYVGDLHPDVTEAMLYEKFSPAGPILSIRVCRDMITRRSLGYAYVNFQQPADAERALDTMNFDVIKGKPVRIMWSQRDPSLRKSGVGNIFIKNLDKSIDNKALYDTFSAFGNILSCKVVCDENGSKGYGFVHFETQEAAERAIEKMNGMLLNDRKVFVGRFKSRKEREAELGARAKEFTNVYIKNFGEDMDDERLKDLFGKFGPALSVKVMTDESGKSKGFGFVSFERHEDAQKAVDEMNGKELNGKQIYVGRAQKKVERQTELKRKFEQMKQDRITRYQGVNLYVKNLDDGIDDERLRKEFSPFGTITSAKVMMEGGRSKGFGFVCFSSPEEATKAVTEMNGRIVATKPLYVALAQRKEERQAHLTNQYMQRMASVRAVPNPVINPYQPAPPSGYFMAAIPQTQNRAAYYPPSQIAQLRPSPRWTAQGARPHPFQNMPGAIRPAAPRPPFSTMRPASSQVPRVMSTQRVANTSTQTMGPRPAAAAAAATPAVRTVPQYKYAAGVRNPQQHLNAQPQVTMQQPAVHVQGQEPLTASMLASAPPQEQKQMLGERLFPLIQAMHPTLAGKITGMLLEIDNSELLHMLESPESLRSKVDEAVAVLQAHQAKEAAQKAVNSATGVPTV
Alkaline phosphatase, placental type, sequence (P05187 whole entry): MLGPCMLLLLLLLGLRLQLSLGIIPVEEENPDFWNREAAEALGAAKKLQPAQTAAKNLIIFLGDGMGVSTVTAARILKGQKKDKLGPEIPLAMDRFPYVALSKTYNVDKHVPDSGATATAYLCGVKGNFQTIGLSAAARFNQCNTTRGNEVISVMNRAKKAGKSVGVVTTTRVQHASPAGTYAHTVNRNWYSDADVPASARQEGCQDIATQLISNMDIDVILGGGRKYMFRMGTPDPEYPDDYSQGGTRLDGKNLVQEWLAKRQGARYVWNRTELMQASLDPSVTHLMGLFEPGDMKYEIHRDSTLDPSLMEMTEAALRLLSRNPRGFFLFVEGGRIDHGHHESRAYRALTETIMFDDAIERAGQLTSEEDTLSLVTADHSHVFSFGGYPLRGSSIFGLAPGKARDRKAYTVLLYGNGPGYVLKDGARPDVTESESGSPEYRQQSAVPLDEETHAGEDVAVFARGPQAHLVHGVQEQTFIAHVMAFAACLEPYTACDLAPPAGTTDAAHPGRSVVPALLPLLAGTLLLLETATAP
14-3-3 protein gamma, sequence (P61981 whole entry): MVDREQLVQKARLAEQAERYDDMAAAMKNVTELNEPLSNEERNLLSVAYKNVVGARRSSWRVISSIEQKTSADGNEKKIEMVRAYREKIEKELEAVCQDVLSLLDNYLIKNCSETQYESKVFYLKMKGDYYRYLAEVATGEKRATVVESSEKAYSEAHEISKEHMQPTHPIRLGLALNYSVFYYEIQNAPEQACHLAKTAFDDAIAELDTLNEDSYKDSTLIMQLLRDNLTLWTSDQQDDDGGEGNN
DNA dC->dU-editing enzyme APOBEC-3G, sequence (Q9HC16 whole entry): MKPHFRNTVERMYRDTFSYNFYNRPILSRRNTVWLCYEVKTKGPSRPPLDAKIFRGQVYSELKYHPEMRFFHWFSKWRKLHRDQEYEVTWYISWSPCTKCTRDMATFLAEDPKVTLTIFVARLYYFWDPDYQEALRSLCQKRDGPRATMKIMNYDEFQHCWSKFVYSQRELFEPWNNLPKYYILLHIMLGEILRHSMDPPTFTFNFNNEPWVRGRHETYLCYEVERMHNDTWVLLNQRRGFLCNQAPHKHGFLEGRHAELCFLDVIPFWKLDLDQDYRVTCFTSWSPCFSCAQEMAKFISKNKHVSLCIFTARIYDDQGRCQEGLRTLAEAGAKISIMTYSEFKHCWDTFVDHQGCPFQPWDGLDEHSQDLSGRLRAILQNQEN
Female germline-specific tumor suppressor gld-1, sequence (Q17339 whole entry): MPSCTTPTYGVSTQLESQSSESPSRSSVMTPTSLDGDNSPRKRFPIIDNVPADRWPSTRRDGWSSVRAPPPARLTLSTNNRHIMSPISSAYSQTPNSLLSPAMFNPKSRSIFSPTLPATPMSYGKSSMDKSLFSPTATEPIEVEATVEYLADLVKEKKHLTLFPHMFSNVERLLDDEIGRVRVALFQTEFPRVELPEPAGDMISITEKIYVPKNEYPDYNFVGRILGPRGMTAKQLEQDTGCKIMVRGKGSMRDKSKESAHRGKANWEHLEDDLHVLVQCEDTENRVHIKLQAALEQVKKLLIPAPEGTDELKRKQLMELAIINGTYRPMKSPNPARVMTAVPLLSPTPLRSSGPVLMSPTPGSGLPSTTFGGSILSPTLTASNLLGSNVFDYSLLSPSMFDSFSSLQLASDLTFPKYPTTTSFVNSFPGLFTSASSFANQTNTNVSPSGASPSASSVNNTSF
Protein Rev, sequence (P04618 whole entry): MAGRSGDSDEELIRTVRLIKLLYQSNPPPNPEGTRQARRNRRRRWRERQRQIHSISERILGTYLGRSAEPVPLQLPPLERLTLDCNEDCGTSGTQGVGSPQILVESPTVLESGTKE

Structure (SMILES): COc1cc(-c2c(-c3ccc4c(c3)OCO4)noc2C)ccc1F
- EC50 [1]: > 71.4 µM (inactive)

Structure (SMILES): COc1ccc(-c2nc(C[S+]([O-])CC(=O)NCc3ccccn3)c(C)o2)cc1 (configuration not stated)
- EC50 [2]: 55.4 µM (active)
- IC50 [3]: 19.4 µM (not active)
- EC50 [4]: 30.5 µM (active)
- IC50 [5]: 29.4 µM (inactive)
- IC50 [6]: > 100 µM (inactive)
- IC50 [7]: 5 µM (active)
- IC50 [8]: > 66 µM (inactive)
- IC50 [9]: 10.7 µM (active)

Structure (SMILES): CC1C(c2ccccc2)N(C)C(c2ccccc2)C(C)C1(O)C#Cc1ccccc1 (configuration not stated)
- IC50 [10]: > 66.6 µM (inactive)
- IC50 [11]: > 66.6 µM (inactive)

Structure (SMILES): CCc1ccc(NC(=O)N2CCN(c3ccc(F)cc3)CC2)cc1
- IC50 [12]: > 100 µM (not active)
- IC50 [13]: > 100 µM (inactive)

Structure (SMILES): Cc1ccc(-c2nc3ccccc3c(=O)n2CCN2CCOCC2)cc1
- IC50 [12]: > 100 µM (not active)
- IC50 [13]: > 100 µM (inactive)

Structure (SMILES): O=C(O)CN1C(=O)/C(=C/c2ccc(SCc3ccccc3)o2)SC1=S
- IC50 [14]: 15.5 µM (active)
- IC50 [15]: > 50 µM (not active)
- IC50 [16]: 4.13 µM (active)

Structure (SMILES): CC(=O)NC(=S)NNC(=O)C(c1ccccc1)c1ccccc1
- IC50 [17]: > 100 µM (inactive)
- IC50 [18]: 35.1 µM (active)

Structure (SMILES): CC(=O)Nc1cccc(C(=O)NNC(=O)c2nnc(O)c3ccccc23)c1
- EC50 [19]: 12.3 µM (active)
- EC50 [20]: > 100 µM (inactive)
- EC50 [21]: 6.37 µM (active)
- EC50 [22]: 11 µM (active)

Structure (SMILES): Cc1[nH]n(-c2nc(-c3ccccc3)cc(=O)[nH]2)c(=O)c1CCO
- EC50 [20]: > 100 µM (inactive)
- IC50 [23]: 2.36 µM (active)
- IC50 [24]: 2.82 µM (active)
- EC50 [22]: 30.7 µM (active)

Structure (SMILES): Cc1ccc(/C=C2\SC(=S)N(/N=C/c3cc([N+](=O)[O-])ccc3O)C2=O)o1
- EC50 [25]: 27.8 µM (active)
- IC50 [14]: 4.54 µM (active)
- EC50 [26]: > 150 µM (inactive)
- IC50 [27]: 80 µM (active)
- IC50 [28]: 1.53 µM (active)
- IC50 [29]: > 100 µM (inactive)
- IC50 [16]: 0.35 µM (active)
- IC50 [30]: 61.9 µM (active)

Structure (SMILES): NC(=O)C1CCN(C(=O)c2ccc(-c3ccccc3)cc2)CC1
- EC50 [1]: > 71.5 µM (inactive)
